Reference: US11306344B2, “Spectral intensity ratio (SIR) analysis for rapid live microbial enumeration” (TACOUNT EXACT LTD., priority 2015, dated 2022)
Read-outs that look alike come from different tables or passages of the source.

Assays:
Entrobacter aerogenes = assay: Flow-Cytometry NVP of dye-stained bacteria; type: cell-based, E. aerogenes
Entrobacter cloacae = assay: Flow-Cytometry NVP of dye-stained bacteria; type: cell-based, E. cloacae
Pseudomonas aeruginosa = assay: Flow-Cytometry NVP of dye-stained bacteria; type: cell-based, Ps. Aeruginosa
E. coli #8739 [1] = assay: Fluorimeter (spectrofluorimetry) spectra, SIR and NVP of dye-stained bacteria; type: cell-based
E. coli - #25922 = assay: Flow-Cytometry NVP of dye-stained bacteria; type: cell-based; conditions: FM 1-43 staining
S. aureus = assay: Flow-Cytometry NVP of dye-stained bacteria; type: cell-based
E. coli #8739 [2] = assay: Flow-Cytometry SIR and NVP of dye-stained bacteria; type: cell-based; conditions: for NVP calculation / SIR calculation: 670 (14)/780 (60) nm channels
E. coli - O157 = type: cell-based, E. coli O157:H7 (EHEC)
Bacillus subtillis = assay: Flow-Cytometry NVP of dye-stained bacteria; type: cell-based, B. subtilis
Enterococcus faecalis = assay: Flow-Cytometry SIR and NVP of dye-stained bacteria; type: cell-based, E. faecalis
Enterococcus faecium = assay: Flow-Cytometry NVP of dye-stained bacteria; type: cell-based, E. faecium
E. coli K12 (MG1655) = assay: Flow-Cytometry SIR analysis of E. coli K12 grown with ampicillin (FM 1-43 staining); type: cell-based; conditions: 1 hour
Protocol: The disclosed method was further validated in studies using E. coli K12 (MG1655, obtained from ATCC). After 5 hours of growth in medium, E. coli were divided into three groups: (A) grown for one hour with no antibiotics, (B) grown for one hour with 700 micrograms of ampicillin, and (C) grown for one hour with 1500 micrograms of ampicillin.
The bacteria were suspended in PBS and stained with FM® 1-43 (43N-(3-Triethylammoniumpropyl)-4-(4-(Dibutylamino) Styryl) Pyridinium Dibromide) ([…] as per the methodology described earlier.
Flow-Cytometry measurements of the stained bacterial samples were performed. In order to adjust the flow-cytometry to the spectral characterization as shown in the fluorescence spectra of the FM® 1-43 (43N-(3-Triethylammoniumpropyl)-4-(4-(Dibutylamino) Styryl) Pyridinium Dibromide) stained bacteria, the […] nm excitation channel of the flow-cytometry and two fluorescence channel using 530 (30) nm and 610 (20) nm as the λ1 and λ2 for the SIR calculation were used. The results are tabulated below and depicted in FIG. 14.

Compound: CCCCN(CCCC)c1ccc(/C=C/c2cc[n+](CCC[N+](CC)(CC)CC)cc2)cc1.[Br-].[Br-] [FM® 1-43, N-(3-Triethylammoniumpropyl)-4-(4-(Dibutylamino) Styryl) Pyridinium Dibromide]
- NVP values (Entrobacter aerogenes; FM 1-43 staining, Chlorine): 12
- NVP values (Entrobacter aerogenes; FM 1-43 staining, Heated): 8
- NVP values (Entrobacter aerogenes; FM 1-43 staining, UV-MP): 4.5
- NVP values (Entrobacter cloacae; FM 1-43 staining, Chlorine): 10
- NVP values (Entrobacter cloacae; FM 1-43 staining, Heated): 8
- NVP values (Entrobacter cloacae; FM 1-43 staining, UV-MP): 5
- NVP values (Pseudomonas aeruginosa; FM 1-43 staining, Chlorine): 5
- NVP values (Pseudomonas aeruginosa; FM 1-43 staining, Heated): 4.6
- NVP values (Pseudomonas aeruginosa; FM 1-43 staining, UV-MP): 3.2
- Non-Viability Parameter (NVP) (E. coli #8739 [1]; 85°, 15 min): ~5
- SIR (I610/I530) (E. coli #8739 [1]; 85°, 15 min): ~7
- Non-Viability Parameter (NVP) (E. coli #8739 [1]; Chlorine 0.05%): ~5
- SIR (I610/I530) (E. coli #8739 [1]; Chlorine 0.05%): ~8
- Non-Viability Parameter (NVP) (E. coli #8739 [1]; Ethanol 70%): ~3
- SIR (I610/I530) (E. coli #8739 [1]; Ethanol 70%): 4.4
- SIR (I610/I530) (E. coli #8739 [1]; Live bacteria): ~1.5
- Non-Viability Parameter (NVP) (E. coli #8739 [1]; UV-LP 30 mJ): 1
- SIR (I610/I530) (E. coli #8739 [1]; UV-LP 30 mJ): 1
- Non-Viability Parameter (NVP) (E. coli #8739 [1]; UV-MP 30 mJ): ~2
- SIR (I610/I530) (E. coli #8739 [1]; UV-MP 30 mJ): 3.7
- NVP values (E. coli - #25922; Chlorine): 9
- NVP values (E. coli - #25922; Heated): 7
- NVP values (E. coli - #25922; UV-MP): 5
- NVP values (S. aureus; FM 1-43 staining, Chlorine): 1.7
- NVP values (S. aureus; FM 1-43 staining, Heated): 1.6
- NVP values (S. aureus; FM 1-43 staining, UV-MP): 1.1
- Non-Viability Parameter (NVP) (E. coli #8739 [2]; 85°, 15 min): 9
- SIR (610/530) Ratio (E. coli #8739 [2]; 85°, 15 min): 8.8
- Non-Viability Parameter (NVP) (E. coli #8739 [2]; Chlorine 0.05%): 10
- SIR (610/530) Ratio (E. coli #8739 [2]; Chlorine 0.05%): 9.6
- Non-Viability Parameter (NVP) (E. coli #8739 [2]; Ethanol 70%): 7
- SIR (610/530) Ratio (E. coli #8739 [2]; Ethanol 70%): 6.5
- NVP values (E. coli #8739 [2]; FM 1-43 staining, Chlorine): 10
- NVP values (E. coli #8739 [2]; FM 1-43 staining, Heated): 9
- NVP values (E. coli #8739 [2]; FM 1-43 staining, UV-MP): 5
- SIR (610/530) Ratio (E. coli #8739 [2]; Live bacteria): 0.73
- Non-Viability Parameter (NVP) (E. coli #8739 [2]; UV-LP 30 mJ): 1
- SIR (610/530) Ratio (E. coli #8739 [2]; UV-LP 30 mJ): 0.7
- Non-Viability Parameter (NVP) (E. coli #8739 [2]; UV-MP 30 mJ): 5
- SIR (610/530) Ratio (E. coli #8739 [2]; UV-MP 30 mJ): 3.5
- NVP values (E. coli - O157): ~10
- NVP values (E. coli - O157; FM 1-43 staining, Heated): ~10
- NVP values (Bacillus subtillis; FM 1-43 staining, Chlorine): 1.5
- NVP values (Bacillus subtillis; FM 1-43 staining, Heated): 1.2
- NVP values (Bacillus subtillis; FM 1-43 staining, UV-MP): 1.2
- NVP (Enterococcus faecalis; 530(30)/610(20), Chlorine): 2
- NVP (Enterococcus faecalis; 530(30)/610(20), Heated): 1.6
- NVP (Enterococcus faecalis; 530(30)/610(20), UV-MP): 1.1
- SIR: 530(30)/610(20) (Enterococcus faecalis; Chlorine): 13
- NVP values (Enterococcus faecalis; FM 1-43 staining, Chlorine): 2
- NVP values (Enterococcus faecalis; FM 1-43 staining, Heated): 1.6
- NVP values (Enterococcus faecalis; FM 1-43 staining, UV-MP): 1.1
- SIR: 530(30)/610(20) (Enterococcus faecalis; Heated): 10.3
- SIR: 530(30)/610(20) (Enterococcus faecalis; Live): 6.5
- SIR: 530(30)/610(20) (Enterococcus faecalis; UV-MP): 7.1
- NVP values (Enterococcus faecium; FM 1-43 staining, Chlorine): 1.7
- NVP values (Enterococcus faecium; FM 1-43 staining, Heated): 1.6

Compound: CCN(CC)c1ccc(C=CC=CC=Cc2cc[n+](CCC[N+](CC)(CC)CC)cc2)cc1.[Br-].[Br-] [FM® 4-64, N-(3-Triethylammoniumpropyl)-4-(6-(4-(Diethylamino) Phenyl) Hexatrienyl) Pyridinium Dibromide]
- NVP values (Entrobacter aerogenes; FM 4-64 staining, Chlorine): 4.5
- NVP values (Entrobacter aerogenes; FM 4-64 staining, Heated): 3.3
- NVP values (Entrobacter aerogenes; FM 4-64 staining, UV-MP): 1.7
- NVP values (Entrobacter cloacae; FM 4-64 staining, Chlorine): 4.5
- NVP values (Entrobacter cloacae; FM 4-64 staining, Heated): 3.7
- NVP values (Entrobacter cloacae; FM 4-64 staining, UV-MP): 2.5
- NVP values (Pseudomonas aeruginosa; FM 4-64 staining, Chlorine): 2
- NVP values (Pseudomonas aeruginosa; FM 4-64 staining, Heated): 1.8
- NVP values (S. aureus; FM 4-64 staining, Chlorine): 2.4
- NVP values (S. aureus; FM 4-64 staining, Heated): 3
- NVP values (S. aureus; FM 4-64 staining, UV-MP): 1.1
- NVP calculation (E. coli #8739 [2]; Chlorinated): 3.4
- SIR calculation (E. coli #8739 [2]; Chlorinated): 12
- NVP calculation (E. coli #8739 [2]; Heated (85°, 15 min)): 4
- SIR calculation (E. coli #8739 [2]; Heated (85°, 15 min)): 14
- SIR calculation (E. coli #8739 [2]; Live): 3.5
- NVP calculation (E. coli #8739 [2]; UV-MP): 3.7
- SIR calculation (E. coli #8739 [2]; UV-MP): 13
- NVP values (E. coli #8739 [2]; FM 4-64 staining, Chlorine): 3.4
- NVP values (E. coli #8739 [2]; FM 4-64 staining, Heated): 4
- NVP values (E. coli #8739 [2]; FM 4-64 staining, UV-MP): 3.7
- NVP values (Bacillus subtillis; FM 4-64 staining, Chlorine): 1.5
- NVP values (Bacillus subtillis; FM 4-64 staining, Heated): 1.8
- NVP (Enterococcus faecalis; 670(14)/780(60), Chlorine): 2.9
- NVP (Enterococcus faecalis; 670(14)/780(60), Heated): 3
- NVP (Enterococcus faecalis; 670(14)/780(60), UV-MP): 1.2
- SIR: 670(14)/780(60) (Enterococcus faecalis; Chlorine): 19.7
- NVP values (Enterococcus faecalis; FM 4-64 staining, Chlorine): 2.9
- NVP values (Enterococcus faecalis; FM 4-64 staining, Heated): 3
- NVP values (Enterococcus faecalis; FM 4-64 staining, UV-MP): 1.2
- SIR: 670(14)/780(60) (Enterococcus faecalis; Heated): 20
- SIR: 670(14)/780(60) (Enterococcus faecalis; Live): 6.7
- SIR: 670(14)/780(60) (Enterococcus faecalis; UV-MP): 8.1
- NVP values (Enterococcus faecium; FM 4-64 staining, Chlorine): 3
- NVP values (Enterococcus faecium; FM 4-64 staining, Heated): 3

Compound: CC1(C)S[C@@H]2[C@H](NC(=O)[C@H](N)c3ccccc3)C(=O)N2[C@H]1C(=O)O [ampicillin]
- % from population (E. coli K12 (MG1655); 700 μg ampicillin, DEAD gate): 15%
- SIR (E. coli K12 (MG1655); 700 μg ampicillin, DEAD gate): 4.4
- % from population (E. coli K12 (MG1655); 700 μg ampicillin, LIVE gate): 83.7%
- SIR (E. coli K12 (MG1655); 700 μg ampicillin, LIVE gate): 1
- % from population (E. coli K12 (MG1655); 1500 μg ampicillin, DEAD gate): 20%
- SIR (E. coli K12 (MG1655); 1500 μg ampicillin, DEAD gate): 5.3
- % from population (E. coli K12 (MG1655); 1500 μg ampicillin, LIVE gate): 78%
- SIR (E. coli K12 (MG1655); 1500 μg ampicillin, LIVE gate): 1
